The target in the assay is NLRP3 inflammasome (Homo sapiens, UniProt Q96P20). Briefly: IL-1β assay in IFN-γ-differentiated, LPS-primed, ATP-activated THP-1 cells (ELISA). The class given is cell-based. To be noted: 50 ng/mL LPS priming, 2.5 mM ATP activation, 2 hours. How it is done:
Monocytic THP-1 cells (ATCC: TIB-202) are maintained in accordance with the provider's instructions in RPMI media (Life Technologies, Cat #A10491-01); RPMI is supplemented with 10% heat inactivated fetal bovine serum (Hyclone Cat #SH30396.03). The cells are differentiated into macrophages by the addition of 25 ng/mL IFN-7 (PeproTech, Cat #300-02-100UG) for 24 hours at 37° C./5% CO2. Media is exchanged with fresh media with no FBS, and the cells are treated with 50 ng/mL LPS (priming step) for 24 hours at 37° C./5% CO2 (LPS-EK: Invivogen, Cat #tlrl-peklps). Media is exchanged with fresh media with no FBS. The cells are plated at 40,000 cells per well in 384-well flat-bottom cell culture plates (Costar 3764) containing compounds (added in 1:1000) in a 1:3.16 serial dilution series in DMSO and are incubated for 30 minutes at 37° C./5% CO2. The NLRP3 inflammasome is activated with the addition of 2.5 mM ATP (Sigma Cat #A3377) and the cells are incubated for 2 hours at 37° C./5% CO2. At the end of the incubation period, 40 μL supernatant is removed, and […] are monitored using an ELISA (Human […], R&D systems, Cat #DY201) in accordance with the manufacturer's instructions.
The IC50 values are calculated from a plot of percentage of inhibition versus the inhibitor concentration by a logistics curve fit according to: Y=[Bottom+(Top−Bottom)]/(1+10^[(Log IC50−X)·Hill Slope], where Y is the % inhibition at the inhibitor concentration, X, “Bottom” is the lowest inhibition value, i.e. 0%, “Top” is the maximum inhibition value, i.e. 100%, and the “Hill Slope” describes the slope of the sigmoidal curve between the “Bottom” and “Top” values. The curve fitting was conducted with internally developed software.
(In general: ELISA stands for enzyme-linked immunosorbent assay.)
NLRP3 inflammasome, sequence (Q96P20 whole entry): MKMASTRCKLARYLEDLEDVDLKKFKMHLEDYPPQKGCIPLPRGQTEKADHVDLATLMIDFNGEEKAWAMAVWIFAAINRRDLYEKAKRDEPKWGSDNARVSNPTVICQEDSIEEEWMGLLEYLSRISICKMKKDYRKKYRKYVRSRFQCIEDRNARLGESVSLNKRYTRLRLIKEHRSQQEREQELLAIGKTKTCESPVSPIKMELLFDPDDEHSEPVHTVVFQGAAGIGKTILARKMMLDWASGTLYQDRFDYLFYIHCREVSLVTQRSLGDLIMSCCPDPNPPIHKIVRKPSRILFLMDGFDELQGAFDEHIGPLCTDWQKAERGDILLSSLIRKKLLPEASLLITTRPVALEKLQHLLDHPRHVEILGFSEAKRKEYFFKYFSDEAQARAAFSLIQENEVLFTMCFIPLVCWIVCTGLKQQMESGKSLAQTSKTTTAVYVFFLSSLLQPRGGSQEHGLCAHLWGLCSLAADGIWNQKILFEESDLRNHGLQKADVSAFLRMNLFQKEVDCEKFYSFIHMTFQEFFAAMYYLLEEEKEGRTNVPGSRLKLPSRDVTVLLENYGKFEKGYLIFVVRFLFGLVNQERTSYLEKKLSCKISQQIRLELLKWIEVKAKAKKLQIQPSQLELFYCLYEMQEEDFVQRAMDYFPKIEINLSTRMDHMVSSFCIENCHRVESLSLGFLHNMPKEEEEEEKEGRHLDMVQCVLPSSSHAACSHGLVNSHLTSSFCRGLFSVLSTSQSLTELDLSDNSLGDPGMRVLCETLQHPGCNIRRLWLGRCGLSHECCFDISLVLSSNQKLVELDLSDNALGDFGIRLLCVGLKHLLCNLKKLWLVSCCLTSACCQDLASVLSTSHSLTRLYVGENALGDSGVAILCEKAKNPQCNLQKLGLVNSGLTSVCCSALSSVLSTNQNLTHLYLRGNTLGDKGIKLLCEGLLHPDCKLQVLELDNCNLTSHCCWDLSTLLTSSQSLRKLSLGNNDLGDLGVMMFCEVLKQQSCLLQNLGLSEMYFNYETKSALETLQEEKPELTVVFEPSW
The IC50 is the midpoint of a concentration-inhibition curve. High values mean lower potency, low ones higher potency. `CC(=O)N1CCc2c(NC3CCCN(C)C3)nnc(-c3ccc(Cl)cc3)c2C1` (stereo not shown) [Example 104, 1-(4-(4-chlorophenyl)-1-((1-methylpiperidin-3-yl)amino)-7,8-dihydropyrido[3,4-d]pyridazin-6(5H)-yl)ethan-1-one] displayed an IC50 of 1660 nM.
`Clc1ccc(-c2nnc(NC3CCN(Cc4ccccc4)CC3)c3ccccc23)cc1` [Example 163, N-(1-benzylpiperidin-4-yl)-4-(4-chlorophenyl)phthalazin-1-amine]: inhibition was half-maximal at 3020 nM (IC50).
For `CO[C@H]1C[C@@H](Nc2nnc(-c3ccc(Cl)cc3)c3ccccc23)C1` [Example 134, 4-(4-chlorophenyl)-N-(cis-3-methoxycyclobutyl)phthalazin-1-amine] the value was 2290 nM; for `C[C@]1(O)CC[C@H](Nc2nnc(-c3ccc(Cl)cc3)c3ccccc23)CC1` [Example 121, trans-4-((4-(4-chlorophenyl)phthalazin-1-yl)amino)-1-methylcyclohexan-1-ol], 3980 nM; for `CN1CCCC(Nc2nnc(-c3cccc(Cl)c3)c3ccccc23)C1` (stereo not shown) [Example 17, 4-(3-chlorophenyl)-N-(1-methylpiperidin-3-yl)phthalazin-1-amine], 4470 nM.
For `CCN1CCc2c(NC3CCCN(C)C3)nnc(-c3ccc(Cl)cc3)c2C1` (stereo not shown) [Example 100, 4-(4-chlorophenyl)-6-ethyl-N-(1-methylpiperidin-3-yl)-5,6,7,8-tetrahydropyrido[3,4-d]pyridazin-1-amine] the value was 2690 nM; for `FC(F)CN1CCC(Nc2nnc(-c3ccc(Cl)cc3)c3ccccc23)C1` (stereo not shown) [Example 170, 4-(4-chlorophenyl)-N-(1-(2,2-difluoroethyl)pyrrolidin-3-yl)phthalazin-1-amine], 2140 nM.
For the compound `CC(C)[C@@H]1CN(C)C[C@H]1Nc1nnc(-c2ccc(Cl)cc2)c2ccccc12` [Example 165, 4-(4-chlorophenyl)-N-((3S,4R)-4-isopropyl-1-methylpyrrolidin-3-yl)phthalazin-1-amine], the IC50 amounted to 3470 nM.
Then `O[C@]1(C(F)(F)F)CCC[C@@H](Nc2nnc(-c3ccc(Cl)cc3)c3ccccc23)C1` [Example 116, (1R,3R)-3-((4-(4-chlorophenyl)phthalazin-1-yl)amino)-1-(trifluoromethyl)cyclohexan-1-ol], with 912 nM; and `CC1(O)CCCC(Nc2nnc(-c3ccc(Cl)cc3)c3ccccc23)C1` (stereo not shown) [Example 138, 3-((4-(4-chlorophenyl)phthalazin-1-yl)amino)-1-methylcyclohexan-1-ol], with 1110 nM; and `FCCN1CCC(Nc2nnc(-c3ccc(Cl)cc3)c3ccccc23)C1` (stereo not shown) [Example 143, 4-(4-chlorophenyl)-N-(1-(2-fluoroethyl)pyrrolidin-3-yl)phthalazin-1-amine], with 1590 nM.
Regarding `Oc1cccc(Nc2nnc(-c3cccc(C4CC4)c3)c3ccccc23)c1` [Example 10, 3-((4-(3-cyclopropylphenyl)phthalazin-1-yl)amino)phenol], the half-maximal inhibitory concentration (IC50) was found to be 437 nM.
For `COc1ccc(-c2nnc(N[C@H]3CC[C@](O)(C(F)(F)F)CC3)c3ccccc23)cc1` [Example 128, trans-4-((4-(4-methoxyphenyl)phthalazin-1-yl)amino)-1-(trifluoromethyl)cyclohexan-1-ol], half-maximal inhibition (IC50) was put at 3020 nM.
Take `CN1CCCC(Nc2nnc(-c3ccc(F)cc3)c3ccccc23)C1` (stereo not shown) [Example 11, 4-(4-fluorophenyl)-N-(1-methylpiperidin-3-yl)phthalazin-1-amine]: the IC50 came out at 933 nM.
`CC1(c2ccc(-c3nnc(Nc4cccc(O)c4)c4ccccc34)cc2)CC1` [Example 3, 3-((4-(4-(1-methylcyclopropyl)phenyl)phthalazin-1-yl)amino)phenol] came in with an IC50 of 1120 nM.
Then `CN1CCC[C@@H](Nc2nnc(-c3ccc(OC(F)(F)F)c(C#N)c3)c3ccncc23)C1` [Example 24, (R)-5-(4-((1-methylpiperidin-3-yl)amino)pyrido[3,4-d]pyridazin-1-yl)-2-(trifluoromethoxy)benzonitrile], with 157 nM; and `COc1ccc(-c2nnc(N[C@@H]3CCCN(C)C3)c3cnccc23)cc1F` [Example 25, (R)-1-(3-fluoro-4-methoxyphenyl)-N-(1-methylpiperidin-3-yl)pyrido[3,4-d]pyridazin-4-amine], with 199 nM; and `O[C@]1(C(F)(F)F)C[C@H](Nc2nnc(-c3ccc(Cl)cc3)c3ccccc23)C1` [Example 120, cis-3-((4-(4-chlorophenyl)phthalazin-1-yl)amino)-1-(trifluoromethyl)cyclobutan-1-ol], with 933 nM.
For `CN1CC(Nc2nnc(-c3ccc(Cl)cc3)c3ccccc23)CC(F)(F)C1` (stereo not shown) [Example 108, 4-(4-chlorophenyl)-N-(5,5-difluoro-1-methylpiperidin-3-yl)phthalazin-1-amine] the value was 3160 nM; for `CN1CCCC(Nc2nnc(-c3ccc(Cl)cc3)c3c2CCN(S(C)(=O)=O)C3)C1` (stereo not shown) [Example 106, 4-(4-chlorophenyl)-N-(1-methylpiperidin-3-yl)-6-(methylsulfonyl)-5,6,7,8-tetrahydropyrido[3,4-d]pyridazin-1-amine], 3310 nM; for `Oc1cccc(Nc2nnc(-c3cccc(C4CCC4)c3)c3ccccc23)c1` [Example 6, 3-((4-(3-cyclobutylphenyl)phthalazin-1-yl)amino)phenol], 2880 nM.
Then `CN1CCC[C@@H](Nc2nnc(-c3ccc(C(F)F)cc3)c3ccncc23)C1` [Example 37, (R)-1-(4-(difluoromethyl)phenyl)-N-(1-methylpiperidin-3-yl)pyrido[3,4-d]pyridazin-4-amine], with 77 nM; and `CN1CCCC(Nc2nnc(-c3ccc(C(F)(F)F)cc3)c3ccccc23)C1` (stereo not shown) [Example 13, N-(1-methylpiperidin-3-yl)-4-(4-(trifluoromethyl)phenyl)phthalazin-1-amine], with 65 nM; and `CN1CCC[C@@H](Nc2nnc(-c3ccc(OC(F)F)cc3)c3ccncc23)C1` [Example 27, (R)-1-(4-(difluoromethoxy)phenyl)-N-(1-methylpiperidin-3-yl)pyrido[3,4-d]pyridazin-4-amine], with 38 nM.
For the compound `CN1CCC[C@@H](Nc2nnc(-c3ccc(C(F)(F)F)cc3F)c3ccncc23)C1` [Example 33, (R)-1-(2-fluoro-4-(trifluoromethyl)phenyl)-N-(1-methylpiperidin-3-yl)pyrido[3,4-d]pyridazin-4-amine], the IC50 is 33 nM.
For `COc1ccc(-c2nnc(N[C@@H]3CCCN(C)C3)c3c(C)nccc23)c(O)c1` [Example 78, (R)-5-methoxy-2-(5-methyl-4-((1-methylpiperidin-3-yl)amino)pyrido[3,4-d]pyridazin-1-yl)phenol] the value was 183 nM; for `CN1CCCC(Nc2nnc(-c3ccc(Cl)cc3)c3cnccc23)C1` (stereo not shown) [Example 62, 4-(4-chlorophenyl)-N-(1-methylpiperidin-3-yl)pyrido[3,4-d]pyridazin-1-amine], 3550 nM.
On to `COc1ccc(-c2nnc(N[C@@H]3CCCN(C4CC4)C3)c3c2CCOC3)cc1` [Example 228, (R)—N-(1-cyclopropylpiperidin-3-yl)-1-(4-methoxyphenyl)-7,8-dihydro-5H-pyrano[3,4-d]pyridazin-4-amine], for which the IC50 is 23 nM.
For `Cc1ccc(-c2nnc(NC34CCC(O)(CC3)C4)c3c2CCOC3)c(O)c1` [Example 231, 4-((1-(2-hydroxy-4-methylphenyl)-7,8-dihydro-5H-pyrano[3,4-d]pyridazin-4-yl)amino)bicyclo[2.2.1]heptan-1-ol] the value was 195 nM.
Then `CS(=O)(=O)N1CCCC(Nc2nnc(-c3ccc(Cl)cc3)c3ccccc23)C1` (stereo not shown) [Example 148, 4-(4-chlorophenyl)-N-(1-(methylsulfonyl)piperidin-3-yl)phthalazin-1-amine], with 1050 nM; and `CN1CC2CCCC(C1)C2Nc1nnc(-c2ccc(Cl)cc2)c2ccccc12` (stereo not shown) [Example 151, 4-(4-chlorophenyl)-N-(3-methyl-3-azabicyclo[3.3.1]nonan-9-yl)phthalazin-1-amine], with 3020 nM; and `CN1CCCC(Nc2nnc(-c3ccc(C(F)F)nc3)c3ccccc23)C1` (stereo not shown) [Example 2, 4-(6-(difluoromethyl)pyridin-3-yl)-N-(1-methylpiperidin-3-yl)phthalazin-1-amine], with 5250 nM.
On to `CN(C)C1CC(Nc2nnc(-c3ccc(Cl)cc3)c3ccccc23)C1` (stereo not shown) [Example 149, Ni-(4-(4-chlorophenyl)phthalazin-1-yl)-N^3,N^3-dimethylcyclobutane-1,3-diamine], for which the IC50 is 3310 nM.
`COc1ccc(-c2nnc(N[C@@H]3C[C@@H](F)CN(C)C3)c3cnccc23)c(F)c1` [Example 180, N-((3R,5R)-5-fluoro-1-methylpiperidin-3-yl)-1-(2-fluoro-4-methoxyphenyl)pyrido[3,4-d]pyridazin-4-amine]: the IC50 worked out at 136 nM.

Source of the values: patent publication US20250340563A1, “FUSED PYRIDAZINE DERIVATIVES AS NLRP3 INHIBITORS” (Takeda Pharmaceutical Company Limited, priority 2022, published 2025).
